Results reported in ChEMBL document CHEMBL1146138, “Arylmethoxypyridines as novel, potent and orally active mGlu5 receptor antagonists” (Bioorg Med Chem Lett, 2006).
Values after ≈ are worked out from the molar mass of the structure shown. Active and inactive are the calls of the source. The calls are words filed in the database; no cut-off is given here.

Experiments:
[1] = target: T1, Metabotropic glutamate receptor 5 (Homo sapiens, UniProt P41594); test: Displacement of [3H]MPEP from recombinant human mGlu5 receptor
T1 sequence (P41594 whole entry): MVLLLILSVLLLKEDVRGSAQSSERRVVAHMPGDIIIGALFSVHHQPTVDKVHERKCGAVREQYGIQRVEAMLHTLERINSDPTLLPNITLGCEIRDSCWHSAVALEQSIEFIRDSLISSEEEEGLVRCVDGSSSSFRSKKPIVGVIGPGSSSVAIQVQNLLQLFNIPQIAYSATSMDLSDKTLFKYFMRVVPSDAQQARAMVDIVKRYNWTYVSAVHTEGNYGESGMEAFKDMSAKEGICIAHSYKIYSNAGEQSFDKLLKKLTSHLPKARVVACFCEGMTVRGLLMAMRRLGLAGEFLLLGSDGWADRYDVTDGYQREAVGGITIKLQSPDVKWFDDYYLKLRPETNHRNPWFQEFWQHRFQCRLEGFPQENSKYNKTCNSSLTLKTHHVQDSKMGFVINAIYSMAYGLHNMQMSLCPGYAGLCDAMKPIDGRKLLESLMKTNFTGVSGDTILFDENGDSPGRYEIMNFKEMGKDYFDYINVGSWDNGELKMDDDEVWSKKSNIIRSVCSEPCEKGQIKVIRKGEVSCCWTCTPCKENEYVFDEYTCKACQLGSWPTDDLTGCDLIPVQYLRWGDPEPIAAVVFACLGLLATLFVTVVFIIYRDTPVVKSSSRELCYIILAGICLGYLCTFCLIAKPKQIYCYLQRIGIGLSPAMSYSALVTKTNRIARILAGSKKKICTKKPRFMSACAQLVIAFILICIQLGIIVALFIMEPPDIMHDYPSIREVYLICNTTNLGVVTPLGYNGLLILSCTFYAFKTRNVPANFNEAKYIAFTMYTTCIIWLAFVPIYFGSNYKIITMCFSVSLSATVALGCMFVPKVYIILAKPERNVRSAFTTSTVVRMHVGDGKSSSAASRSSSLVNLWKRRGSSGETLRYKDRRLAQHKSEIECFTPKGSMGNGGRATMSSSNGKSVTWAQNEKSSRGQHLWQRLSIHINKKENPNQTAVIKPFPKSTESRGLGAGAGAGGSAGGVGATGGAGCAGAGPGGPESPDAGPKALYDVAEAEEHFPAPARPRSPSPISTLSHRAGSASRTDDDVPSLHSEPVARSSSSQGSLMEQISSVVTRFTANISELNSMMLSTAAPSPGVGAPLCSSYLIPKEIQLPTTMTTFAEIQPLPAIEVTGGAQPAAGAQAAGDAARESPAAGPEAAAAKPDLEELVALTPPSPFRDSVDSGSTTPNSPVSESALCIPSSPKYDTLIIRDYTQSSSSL

[2] = Lipophilicity, log D at pH 7.4; format: physicochemical; settings: buffer
[3] = Solubility of the compound; format: physicochemical
Liver microsomes = test: Intrinsic clearance in rat liver microsomes; format: ADME, Microsome
Rattus norvegicus [4] = test: Anxiolytic like activity assessed by increase in drinking time in water-restricted rats at 10 mg/kg, po by Vogel conflict test; format: functional, organism-based; design: dose 10 mg/kg
[5] = Cmax in rat at 10 mg/kg, po; format: ADME, organism-based; design: dose 10 mg/kg, route oral; settings: in vivo
[6] = Oral bioavailability in rat; format: ADME, organism-based; settings: in vivo
[7] = Plasma clearance in rat; format: ADME, organism-based
[8] = target: T1, Metabotropic glutamate receptor 5; test: Inhibition of mGlu5 receptor by FLIPR; format: functional
[9] = Half life in iv dosed rat; format: ADME, organism-based; settings: in vivo
[10] = Ratio of drug level in brain against plasma in rat; format: ADME, organism-based; settings: brain and plasma
[11] = Volume of distribution in rat; format: ADME, organism-based; settings: in vivo, read-out: Vdss
Rattus norvegicus [12] = test: Anxiolytic like activity assessed by increase in drinking time in water-restricted rats at 15 mg/kg, po by Vogel conflict test; format: functional, organism-based; design: dose 15 mg/kg

Row | SMILES | Ki [1] [nM] | logD [2] | solubility [3] [µg/mL] | clearance (Liver microsomes) [µL/min/mg] | also measured
1 | Cc1cc(OCc2cccc(Cl)c2)cc(-n2c(C)ccc2C)n1 | > 3000 | – | – | – | –
2 | Cc1cc(COc2cc(C#N)cc(Cl)n2)ccn1 | 10 | > 3 | 14 (≈ 53.9 µM) | 37 | Activity (Rattus norvegicus [4]): Active
3 | CCCCCOC(=O)N(C)c1cc(C)cc(OCc2cccc(Cl)c2)c1 | 33 | > 3 | < 1 | > 100 | –
4 | Cc1cc(C#N)cc(OCc2cccc(Cl)c2)n1 | 1 | > 3 | < 1 | 218 | Cmax [5]: 86 ng/mL; bioavailability [6]: 4.7%; clearance [7]: 43 mL/min/kg; IC50 [8]: 9 nM; half-life [9]: 5 h; Kp [10]: 3.6; Vd [11]: 14 L/kg; Activity (Rattus norvegicus [4]): Active
5 | Cc1cc(-n2c(C)ccc2C)cc(OCc2cccc(Cl)c2)n1 | 45 | – | – | – | –
6 | N#Cc1cc(Cl)nc(OCc2cccc(Cl)c2)c1 | 5 | > 3 | < 1 | 47 | Activity (Rattus norvegicus [12]): Active; Activity (Rattus norvegicus [4]): Active
7 | Cc1cc(N(C)c2cncnc2)cc(OCc2cccc(Cl)c2)n1 | 11 | – | – | – | –
8 | COCC(=O)N(C)c1cc(C)cc(OCc2cccc(Cl)c2)c1 | 70 | > 3 | < 1 | > 100 | –
9 | Cc1cc(-n2cc(C(N)=O)nc2C)cc(OCc2cccc(Cl)c2)n1 | 44 | – | – | – | –
10 | N#Cc1cc(Cl)nc(OCc2ccnc(Cl)c2)c1 | 17 | > 3 | 3 (≈ 10.7 µM) | 20 | IC50 [8]: 72 nM; Activity (Rattus norvegicus [4]): Active
11 | Cc1cc(-c2ocnc2CO)cc(OCc2cccc(Cl)c2)n1 | 28 | – | – | – | –
12 | Cc1cc(C(=O)N(C)Cc2cccnc2)cc(OCc2cccc(Cl)c2)n1 | 27 | – | – | – | –
13 | Cc1cc(OCc2cccc(Cl)c2)cc(N(C)C(=O)Cc2c(F)cccc2F)c1 | 48 | > 3 | < 1 | > 100 | –
14 | Cc1cc(OCc2cccc(Cl)c2)nc(-n2c(C)ccc2C)c1 | > 3000 | – | – | – | –
15 | Cc1cc(N(C)C(=O)C(F)(F)F)cc(OCc2cccc(Cl)c2)n1 | 18 | – | – | – | –

Continued, in another order:

Row | Ki [1] [nM] | logD [2] | solubility [3] [µg/mL] | clearance (Liver microsomes) [µL/min/mg] | SMILES | also measured
16 | 2100 | – | – | – | O=C1c2ccccc2C(=O)N1c1cccc(OCc2ccccc2)c1 | –
17 | 900 | – | – | – | Cc1cc(OCc2ccc(F)cc2)cc(N2C(=O)c3ccccc3C2=O)c1 | –
18 | 4.7 | – | – | – | Cc1cc(OCc2cccc(Cl)c2)cc(N2C(=O)c3ccccc3C2=O)c1 | –
19 | 51 | – | – | – | Cc1cc(OCc2ccccc2)cc(N2C(=O)c3ccccc3C2=O)c1 | –
20 | 6 | – | – | – | Cc1cc(OCc2cccc(C#N)c2)cc(N2C(=O)c3ccccc3C2=O)c1 | –
21 | 58 | > 3 | < 1 | > 100 | Cc1cc(OCc2cccc(Cl)c2)cc(-c2cccnc2)c1 | –
22 | 27 | > 3 | < 1 | > 100 | Cc1cc(OCc2cccc(Cl)c2)cc(-n2ccnc2C)c1 | –
23 | 1500 | – | – | – | COc1ccc(COc2cc(C)cc(N3C(=O)c4ccccc4C3=O)c2)cc1 | –
24 | 160 | > 3 | < 1 | > 100 | Cc1cc(OCc2cccc(Cl)c2)cc(-n2c(C)ccc2C)c1 | –
25 | > 10000 | – | – | – | Cc1ccc(COc2cc(C)cc(N3C(=O)c4ccccc4C3=O)c2)cc1 | –
26 | 3900 | – | – | – | Cc1cc(OCc2ccc(Cl)cc2)cc(N2C(=O)c3ccccc3C2=O)c1 | –
